Data on 2 molecules can be found in publication PMC5452050 (ACS Omega, 2017).

Usually Kd stands for the free concentration of one partner at which half of the binding sites on the other are occupied at equilibrium, for simple one-to-one binding. The term AUC denotes the area under the concentration-time curve, a measure of exposure. A lower AUC goes with less exposure. What is called Tmax is the time at which the peak concentration occurs. One may read the Cmax as the highest concentration seen after dosing. The half-life is the time needed for the level to fall by half in the phase considered. Low readings indicate rapid decline, high ones slow decline.

A short description of data set [1]: Plasma stability. The class given is in vitro ADME. As to conditions: mouse.
In data set [2] the test system is MV4-11 cells. The data set is described as follows: MV4-11 cell proliferation. The data set is classed as cell-based.
Data set [3] is described as follows: Plasma stability. The class given is in vitro ADME. The conditions noted are these: human.
Data set [4] deals with CSF1R (Homo sapiens, UniProt P07333). The data set is described as follows: Kd determination. The class given is binding.
Chain of CSF1R (P07333 20-972): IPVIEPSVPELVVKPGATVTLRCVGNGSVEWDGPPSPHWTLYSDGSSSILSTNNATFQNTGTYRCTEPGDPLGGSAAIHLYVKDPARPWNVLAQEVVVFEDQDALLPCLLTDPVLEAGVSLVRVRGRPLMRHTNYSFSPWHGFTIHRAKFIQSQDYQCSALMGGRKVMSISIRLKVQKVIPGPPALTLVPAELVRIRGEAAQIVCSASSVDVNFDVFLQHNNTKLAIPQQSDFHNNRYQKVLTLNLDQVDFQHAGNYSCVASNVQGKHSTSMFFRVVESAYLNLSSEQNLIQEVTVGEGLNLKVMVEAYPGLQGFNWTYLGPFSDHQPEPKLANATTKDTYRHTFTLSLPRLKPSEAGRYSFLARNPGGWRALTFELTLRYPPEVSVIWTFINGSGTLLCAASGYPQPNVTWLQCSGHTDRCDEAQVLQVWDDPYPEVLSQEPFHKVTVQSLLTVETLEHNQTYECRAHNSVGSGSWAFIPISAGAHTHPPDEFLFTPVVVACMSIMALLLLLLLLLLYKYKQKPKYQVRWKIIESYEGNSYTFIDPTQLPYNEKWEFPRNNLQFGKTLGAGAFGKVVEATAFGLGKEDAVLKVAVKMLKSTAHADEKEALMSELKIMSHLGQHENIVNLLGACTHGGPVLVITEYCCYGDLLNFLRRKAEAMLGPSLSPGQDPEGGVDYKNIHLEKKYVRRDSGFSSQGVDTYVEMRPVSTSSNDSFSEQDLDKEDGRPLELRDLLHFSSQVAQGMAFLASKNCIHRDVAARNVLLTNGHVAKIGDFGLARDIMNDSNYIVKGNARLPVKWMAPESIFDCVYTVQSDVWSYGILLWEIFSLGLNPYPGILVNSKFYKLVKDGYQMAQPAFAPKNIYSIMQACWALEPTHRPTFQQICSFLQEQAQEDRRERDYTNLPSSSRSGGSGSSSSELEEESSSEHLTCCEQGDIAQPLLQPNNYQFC
A short description of data set [5]: Simulated gastric fluid. The class given is physicochemical.
In data set [6] the target is TYK2 (JH1 domain-catalytic) (Homo sapiens, UniProt P29597). The data set is described as follows: Kd determination. The data set is classed as binding.
Data set [7] concerns the target EPHB6 (Homo sapiens, UniProt O15197). Nature of the data set: Kd determination. The data set is classed as binding.
Data set [8] can be described thus: PBS stability. The data set is classed as physicochemical.
Data set [9] is described as follows: In vivo pharmacokinetic study. Also noted: species or system mouse.
The target in data set [10] is LCK (Homo sapiens, UniProt P06239). Nature of the data set: Kd determination. The class given is binding.
For data set [11], the target named is TRKA (Homo sapiens, UniProt P04629). Nature of the data set: Kd determination. The data set is classed as binding.
Chain of TRKA (P04629 33-796): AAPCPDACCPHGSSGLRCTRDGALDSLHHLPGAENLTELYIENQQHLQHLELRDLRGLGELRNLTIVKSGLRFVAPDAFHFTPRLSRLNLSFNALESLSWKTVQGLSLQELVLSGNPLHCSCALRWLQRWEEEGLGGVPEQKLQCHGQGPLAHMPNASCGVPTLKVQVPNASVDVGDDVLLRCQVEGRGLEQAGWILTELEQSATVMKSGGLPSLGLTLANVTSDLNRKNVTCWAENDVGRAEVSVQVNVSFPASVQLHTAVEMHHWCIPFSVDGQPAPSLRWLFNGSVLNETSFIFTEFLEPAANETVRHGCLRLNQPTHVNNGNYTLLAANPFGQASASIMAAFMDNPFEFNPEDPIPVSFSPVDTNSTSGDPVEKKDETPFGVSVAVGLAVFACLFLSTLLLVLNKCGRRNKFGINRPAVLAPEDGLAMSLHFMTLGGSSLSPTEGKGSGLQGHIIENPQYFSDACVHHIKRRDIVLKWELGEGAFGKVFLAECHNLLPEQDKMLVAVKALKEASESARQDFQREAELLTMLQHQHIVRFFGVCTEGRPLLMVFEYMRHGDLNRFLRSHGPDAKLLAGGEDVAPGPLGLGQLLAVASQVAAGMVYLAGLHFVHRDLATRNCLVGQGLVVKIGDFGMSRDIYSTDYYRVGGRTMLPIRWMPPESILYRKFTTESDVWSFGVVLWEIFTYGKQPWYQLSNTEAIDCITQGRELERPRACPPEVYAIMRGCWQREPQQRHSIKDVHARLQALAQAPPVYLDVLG
The target of data set [12] is AURKC (Homo sapiens, UniProt Q9UQB9). The data set is described as follows: Kd determination. The data set is classed as binding.
Chain of AURKC (Q9UQB9 whole entry): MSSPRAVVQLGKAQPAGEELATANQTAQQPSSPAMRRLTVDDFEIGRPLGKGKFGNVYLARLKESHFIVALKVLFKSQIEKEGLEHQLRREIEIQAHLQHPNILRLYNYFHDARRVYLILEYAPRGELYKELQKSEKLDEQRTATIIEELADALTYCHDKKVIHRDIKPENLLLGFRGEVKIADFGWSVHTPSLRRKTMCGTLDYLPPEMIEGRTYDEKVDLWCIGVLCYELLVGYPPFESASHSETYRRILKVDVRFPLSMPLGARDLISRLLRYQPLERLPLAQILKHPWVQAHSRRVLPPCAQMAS
Data set [13] concerns the target SRC (Homo sapiens, UniProt P12931). The data set is described as follows: Kd determination. The data set is classed as binding.
Data set [14] concerns the target ABL1 (H396P)-phosphorylated (Homo sapiens, UniProt P00519, H396P). The data set is described as follows: Kd determination. The data set is classed as binding.
Data set [15] concerns the target MINK (Homo sapiens, UniProt Q8N4C8). The data set is described as follows: Kd determination. The class given is binding.
Data set [16] deals with RET (M918T) (Homo sapiens, UniProt P07949, M918T). Nature of the data set: Kd determination. The class given is binding.
Data set [17] has as its target AURKA (Homo sapiens, UniProt O14965). The data set is described as follows: Kd determination. The class given is binding.
The target in data set [18] is PRKCQ (Homo sapiens, UniProt Q04759). The data set is described as follows: Kd determination. The class given is binding.
Chain of PRKCQ (Q04759 whole entry): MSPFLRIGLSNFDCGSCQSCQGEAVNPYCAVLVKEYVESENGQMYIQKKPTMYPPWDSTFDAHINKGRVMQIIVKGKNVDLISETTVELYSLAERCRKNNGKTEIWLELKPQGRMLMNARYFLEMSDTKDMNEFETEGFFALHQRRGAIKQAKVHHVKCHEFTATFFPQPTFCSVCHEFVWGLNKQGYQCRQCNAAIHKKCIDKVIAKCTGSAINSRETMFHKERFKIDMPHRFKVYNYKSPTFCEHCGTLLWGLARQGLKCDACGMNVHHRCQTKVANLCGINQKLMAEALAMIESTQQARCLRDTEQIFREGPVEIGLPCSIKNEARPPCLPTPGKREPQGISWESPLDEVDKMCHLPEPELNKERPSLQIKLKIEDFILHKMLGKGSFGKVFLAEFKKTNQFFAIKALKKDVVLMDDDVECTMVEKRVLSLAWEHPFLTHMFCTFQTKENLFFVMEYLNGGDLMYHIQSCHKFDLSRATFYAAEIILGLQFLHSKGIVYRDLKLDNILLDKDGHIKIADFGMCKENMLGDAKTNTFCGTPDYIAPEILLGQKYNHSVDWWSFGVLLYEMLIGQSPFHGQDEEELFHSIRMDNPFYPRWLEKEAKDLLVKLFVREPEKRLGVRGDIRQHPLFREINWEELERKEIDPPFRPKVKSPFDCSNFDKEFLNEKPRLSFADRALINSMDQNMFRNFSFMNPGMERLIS
The target of data set [19] is MERTK (Homo sapiens, UniProt Q12866). Nature of the data set: Kd determination. The class given is binding.
Data set [20] has as its target CSF1R-autoinhibited (Homo sapiens, UniProt P07333). Nature of the data set: Kd determination. The class given is binding.
Setting [21] is: female, C57BL/6, mouse, plasma, ip, 3 mg/kg.
The mark [22] stands for this setting: female, C57BL/6, mouse, plasma, ip, 5 mg/kg.
Setting [23] is: female, C57BL/6, mouse, plasma, ip, 10 mg/kg.

Bounds are passed on as bounds.

Chain of MINK (Q8N4C8 whole entry): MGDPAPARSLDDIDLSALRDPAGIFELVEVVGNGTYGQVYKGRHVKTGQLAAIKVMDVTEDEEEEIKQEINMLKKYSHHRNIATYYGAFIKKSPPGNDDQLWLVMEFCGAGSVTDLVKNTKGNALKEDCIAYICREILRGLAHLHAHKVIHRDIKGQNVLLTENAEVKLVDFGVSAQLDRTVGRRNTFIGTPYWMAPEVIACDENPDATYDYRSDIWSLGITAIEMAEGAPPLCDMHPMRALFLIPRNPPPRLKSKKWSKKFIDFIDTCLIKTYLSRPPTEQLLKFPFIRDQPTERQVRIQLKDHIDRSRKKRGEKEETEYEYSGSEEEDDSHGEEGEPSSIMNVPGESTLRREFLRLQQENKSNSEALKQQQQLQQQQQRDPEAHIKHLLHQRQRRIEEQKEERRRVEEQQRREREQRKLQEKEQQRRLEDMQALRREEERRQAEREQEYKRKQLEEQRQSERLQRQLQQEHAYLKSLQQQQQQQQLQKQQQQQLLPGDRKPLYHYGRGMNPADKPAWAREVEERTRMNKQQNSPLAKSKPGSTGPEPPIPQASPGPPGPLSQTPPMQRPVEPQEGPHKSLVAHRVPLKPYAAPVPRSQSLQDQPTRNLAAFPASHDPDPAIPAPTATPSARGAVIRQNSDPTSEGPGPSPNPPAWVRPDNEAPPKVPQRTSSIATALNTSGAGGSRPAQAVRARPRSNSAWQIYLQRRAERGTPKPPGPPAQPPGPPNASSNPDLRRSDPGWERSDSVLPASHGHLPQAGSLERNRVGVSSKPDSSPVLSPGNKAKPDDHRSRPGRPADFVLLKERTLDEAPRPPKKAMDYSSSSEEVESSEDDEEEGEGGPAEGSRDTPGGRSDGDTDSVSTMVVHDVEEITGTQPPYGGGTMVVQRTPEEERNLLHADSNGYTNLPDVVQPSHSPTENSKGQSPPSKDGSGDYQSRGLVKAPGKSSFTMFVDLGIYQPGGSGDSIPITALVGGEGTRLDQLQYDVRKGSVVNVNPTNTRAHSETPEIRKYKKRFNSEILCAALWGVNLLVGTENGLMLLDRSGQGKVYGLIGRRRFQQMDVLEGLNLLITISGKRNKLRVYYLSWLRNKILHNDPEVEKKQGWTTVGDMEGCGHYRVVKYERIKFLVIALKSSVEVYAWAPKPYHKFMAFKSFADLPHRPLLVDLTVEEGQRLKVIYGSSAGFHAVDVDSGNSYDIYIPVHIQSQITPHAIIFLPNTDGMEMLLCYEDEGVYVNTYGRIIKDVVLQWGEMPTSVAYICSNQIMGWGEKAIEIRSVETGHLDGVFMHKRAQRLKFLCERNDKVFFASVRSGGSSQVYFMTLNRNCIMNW
Chain of CSF1R-autoinhibited (P07333 539-972 limits assumed): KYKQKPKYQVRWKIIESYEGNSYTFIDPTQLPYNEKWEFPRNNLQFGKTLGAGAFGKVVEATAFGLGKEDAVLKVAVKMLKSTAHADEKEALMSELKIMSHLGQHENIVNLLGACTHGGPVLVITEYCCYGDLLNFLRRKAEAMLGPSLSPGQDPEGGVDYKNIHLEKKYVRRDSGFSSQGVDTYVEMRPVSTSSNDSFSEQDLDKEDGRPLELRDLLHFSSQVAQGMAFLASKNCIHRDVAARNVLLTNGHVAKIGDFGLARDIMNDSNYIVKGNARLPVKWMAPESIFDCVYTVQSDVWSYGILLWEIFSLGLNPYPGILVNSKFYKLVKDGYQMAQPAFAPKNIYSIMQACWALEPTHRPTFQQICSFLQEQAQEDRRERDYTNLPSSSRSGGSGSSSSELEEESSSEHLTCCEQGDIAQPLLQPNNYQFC
Chain of AURKA (O14965 whole entry): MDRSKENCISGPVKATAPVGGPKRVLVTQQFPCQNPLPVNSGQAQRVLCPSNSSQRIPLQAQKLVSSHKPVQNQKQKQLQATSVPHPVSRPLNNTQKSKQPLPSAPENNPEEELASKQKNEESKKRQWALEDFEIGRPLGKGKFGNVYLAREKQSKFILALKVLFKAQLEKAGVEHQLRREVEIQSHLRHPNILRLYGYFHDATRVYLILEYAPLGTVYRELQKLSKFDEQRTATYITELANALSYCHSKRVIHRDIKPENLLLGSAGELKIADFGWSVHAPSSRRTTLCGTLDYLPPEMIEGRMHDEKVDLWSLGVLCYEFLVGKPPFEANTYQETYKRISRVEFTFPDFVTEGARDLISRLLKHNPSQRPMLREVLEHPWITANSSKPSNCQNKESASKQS

As to `CC(C)Nc1ccnc(Nc2cccc(-c3cccnc3)c2)n1` [Compound 5e, N^4-Isopropyl-N^2-(3-(pyridin-3-yl)phenyl)pyrimidine-2,4-diamine], the plasma stability in data set [1] and in data set [3] was more than 48 h each time. Besides, the “fold improvement in MV4-11 growth inhibition relative to 1” value in data set [2] is “approximately 10 fold”. In addition, the Kd worked out at 460 nM in data set [4], 740 nM in [6] and 440 nM in [7]. In data set [5], the SGF stability is listed as more than 48 h. The PBS stability in data set [8] (pH = 3.0), in data set [8] (pH = 5.0) and in data set [8] (pH = 7.4) was more than 48 h throughout. Also, the AUC was 0.183 µM·h in data set [9] (setting [21]), 0.683 µM·h in data set [9] (setting [22]) and 0.953 µM·h in data set [9] (setting [23]). Further, the Tmax in [9] (setting [21]) came to 4.98 min; in data set [9] (setting [22]), 4.98 min; in data set [9] (setting [23]) it was 15 min. For the same molecule, the Cmax in data set [9] (female, C57BL/6, mouse, plasma, ip, 3 mg/kg, Cmax, mice) was determined as 327 nM; in data set [9] (female, C57BL/6, mouse, plasma, ip, 5 mg/kg, Cmax, mice), 927 nM; in [9] (female, C57BL/6, mouse, plasma, ip, 10 mg/kg, Cmax, mice) it was 1620 nM; in data set [9] (mice, i.p., 3 mg/kg) it was 376 nM; in data set [9] (mice, i.p., 10 mg/kg), 1650 nM. Further, the half-life in data set [9] (female, C57BL/6, mouse, plasma, ip, 3 mg/kg, T1/2, mice) is 13.8 min; in data set [9] (female, C57BL/6, mouse, plasma, ip, 5 mg/kg, T1/2, mice) it was 32.4 min; in data set [9] (female, C57BL/6, mouse, plasma, ip, 10 mg/kg, T1/2, mice) it was 60 min; in data set [9] (female, C57BL/6, mouse, plasma, ip, 10 mg/kg, half-life, mice, across 3, 5 and 10 mg/kg) it was 13.8 to 60 min. The Cl in [9] (mice, i.p., 3 mg/kg) was determined as 845 mL/min/kg; in data set [9] (mice, i.p., 5 mg/kg), 397 mL/min/kg; in [9] (mice, i.p., 10 mg/kg), 552 mL/min/kg. For the same molecule, the Vz in [9] (mice, i.p., 3 mg/kg) turned out to be 16.7 L/kg; in data set [9] (mice, i.p., 5 mg/kg) it was 18.6 L/kg; in data set [9] (mice, i.p., 10 mg/kg) it was 47.3 L/kg.

As to `c1cncc(-c2cccc(Nc3nccc(NC4CCCCC4)n3)c2)c1` [Compound 1, N^4-Cyclohexyl-N^2-(3-(pyridin-3-yl)phenyl)pyrimidine-2,4-diamine], the Kd in [10] was 2900 nM; in [11], 1100 nM; in data set [12] it was more than 10000 nM; in data set [13], 1100 nM; in [14], 2100 nM; in data set [15] it was 2500 nM. In addition, the Kd in data set [16] turned out to be 1200 nM; in [17], 1600 nM; in data set [18], 1600 nM; in data set [19] it was 2800 nM; in [20], 1500 nM.
